# Experimental data as given in US20050265997A1, “Cancer treatment method by inhibiting MAGE gene expression or function” (WISCONSIN ALUMNI RESEARCH FOUNDATION, priority 2004, published 2005).
# How the values were obtained:
# Format in all cases: cell-based, human
# HMC-1.1 cells = experiment: Induction of apoptosis by STI 571; conditions: following decrease of MAGE mRNA and protein
# Source text: (§1) The human mast cell line HMC-1 is dependent on the expression of mutant KIT protein which is constitutively activated, and inhibition of activated KIT with a drug induces apoptosis of HMC-1 cells (Ma et al., 2002, The c-KIT mutation causing human mastocytosis is resistant to STI571 and other KIT kinase inhibitors; kinases with enzymatic site mutations show different inhibitor sensitivity profiles than wild-type kinases and those with regulatory-type mutations. Blood 99:1741-4.). However, the mechanism by which KIT inhibitors cause apoptosis in these cells is unknown. To look for genes whose products could regulate and transduce KIT related signals controlling apoptosis, we used gene chip array analysis to study changes in the mRNA levels of specific genes following induction of apoptosis.
# [1] = test system: MAGE-A protein in HMC-1.1 cells; experiment: Western blot of MAGE-A protein after STI 571; conditions: 12 and 24 hours after administration of STI 571
# [2] = test system: MAGE mRNA in HMC-1.1 cell; experiment: Genechip array analysis of MAGE mRNA after STI 571; conditions: HMC-1.1 cells, 1 μM STI571 for 4 hours, Means +/- SEM
# Source text: as §1
# HMC-1.1 cells were divided into triplicate cultures of two groups: a control group treated with PBS, and an experimental group treated with 1 μM STI571, a KIT inhibitor for 4 hours. A quarter of the cells were used for Western blots to confirm the KIT inhibition, and the rest were used for total RNA isolation for genechip analysis. We used Affymetrix Genechip human Genome U133A chips. The arrays were hybridized and scanned and the data were analyzed using dChip analysis software. The statistical significance of differences in mRNA expression levels between STI571 treated and control cells were assessed by t-test based on data from three independent replicates. Values are expressed as Means +/−SEM, and p<0.05 was considered statistically significant.
compound,measurement,setting,value
Cc1ccc(NC(=O)c2ccc(CN3CCN(C)CC3)cc2)cc1Nc1nccc(-c2cccnc2)n1 [STI 571],apoptosis of the cells,HMC-1.1 cells,followed by apoptosis of the cells
same,MAGE-A protein level (Western blot),[1],down-regulation of MAGE-A protein
same,"mRNA level, melanoma antigen, family A, 1 (NM_004988)","[2]; three replicates, PBS control 757 ± 29",562 ± 33
same,"mRNA level, melanoma antigen, family A, 12 (BC003408)",[2]; PBS control 513 ± 29,410 ± 26
same,"mRNA level, melanoma antigen, family E, 1 (NM_016249)",[2]; PBS control 514 ± 13,405 ± 21
same,"mRNA level, melanoma antigen, family A, 5 (AI200443)",[2]; PBS control 520 ± 28,414 ± 28
same,"mRNA level, melanoma antigen, family A, 6 (U10691)",[2]; PBS control 896 ± 54,712 ± 42
same,"mRNA level, melanoma antigen, family A, 3 (BC000340)",[2]; PBS control 977 ± 67,779 ± 32
